These are literature values, as cited in patent US10281459B2, “Protein biosensors, cross reactive sensor arrays and methods of use thereof” (YEDA RESEARCH AND DEVELOPMENT CO. LTD., priority 2012, dated 2019).

The target of one data set is GSTs. The settings on record: literature.
The target in the next data set is MMP isoforms. The settings on record: broad-spectrum inhibitor of MMP isoforms; literature.

Consider `C=C(CC)C(=O)c1ccc(OCC(=O)O)c(Cl)c1Cl` [EA, ethacrynic acid], for which the “reported values for the inhibition of GSTs” value on GSTs is recorded as “low micromolar range”.

With `CNC(=O)[C@@H](NC(=O)[C@H](CC(C)C)[C@H](O)C(=O)NO)C(C)(C)C` [Marimastat, marimastat], on MMP isoforms, the Ki values result is recorded as “low nanomolar range”.
